Measurements: EP0267050B1, “Aerosols containg liposomes and method for their preparation” (priority 1986, dated 1988)

Experiments:
polioviruses = conditions: cited from earlier work
echoviruses = conditions: cited from earlier work
[1] = system: Muscle from many organs of rats; test: Effects in vitro on muscle: antagonism of dose response curves; conditions: rat muscle in vitro, 10⁻⁵ to 10⁻⁸M; similar to that of potassium chloride
Description: (§1) Effects in vitro on muscle. Muscle from many organs of rats was tested with 10⁻⁵ to 10⁻⁸M enviroxime.

cells in culture = conditions: cited from earlier work
[2] = Animal tolerance: effects of oral doses in mice; format: in vivo
[3] = Plasma concentration after I.V. doses; format: in vivo, dogs
Description: (§2) Effects on cats and dogs. […] Plasma concentrations of enviroxime were 3.0, 8.9 and 19 µg/mL following these I.V. doses. Bioassay (antiviral) and biochemical assay of blood yielded similar results.

[4] = Animal tolerance: diastolic blood pressure in dogs; format: in vivo; conditions: following 1, 3, and 10 mg/kg I.V. doses
Description: as §2

coxsackieviruses = conditions: cited from earlier work
[5] = Animal tolerance: cardiovascular effects in cats; format: in vivo
Description: as §2

[6] = system: primary antibody response; format: in vivo; conditions: mice
[7] = cited from earlier work
rhinoviruses = conditions: all rhinoviruses tested; generally range; cited from earlier work
prostaglandin E2 = test: Effects in vitro on muscle: receptor activation; parameters: species or system rats; conditions: rat muscle in vitro, 10⁻⁵ to 10⁻⁸M
Description: as §1

histamine = test: Effects in vitro on muscle: receptor activation; parameters: species or system rats; conditions: rat muscle in vitro, 10⁻⁵ to 10⁻⁸M
Description: as §1

adrenergic = test: Effects in vitro on muscle: receptor activation; parameters: species or system rats; conditions: rat muscle in vitro, 10⁻⁵ to 10⁻⁸M
Description: as §1

[8] = Animal tolerance: effects on electrolytes and urine output; format: in vivo; conditions: rats
Excerpt: Effects on electrolytes. […] The oliguria was associated with increases in potassium in serum but not sodium.

[9] = associated with the oliguria at 25 mg/kg and above

CC(C)S(=O)(=O)n1c(N)nc2ccc(/C(=N/O)c3ccccc3)cc21 [enviroxime]
activity against polioviruses (polioviruses): active | activity against echoviruses (echoviruses): active | antagonism of dose response curves [1]: some non-competitive antagonism | Maximum tolerated concentrations for cells in culture (cells in culture): 4 to 100 µg/mL | effects in mice ([2]; 50 mg/kg orally): no detectable effects | effects in mice ([2]; higher doses, 100-400 mg/kg): increasing leg weakness, decreased motor activity and gait disturbances | onset of the effect of high doses ([2]; mice, high doses): within a few minutes | tolerance of oral doses ([2]; oral doses up to 100 mg/kg, a number of other tests): well tolerated | Plasma concentrations ([3]; following 1 mg/kg I.V. dose): 3000 ng/mL | Plasma concentrations ([3]; following 3 mg/kg I.V. dose): 8900 ng/mL | Plasma concentrations ([3]; following 10 mg/kg I.V. dose): 19000 ng/mL | diastolic blood pressure [4]: some stepwise depression | activity against coxsackieviruses (coxsackieviruses): active | cardiovascular effects [5]: no significant cardiovascular effects | immune suppressive activity on primary antibody response [6]: no immune suppressive activity | soluble in water [7]: 1 to 2 µg/mL | inhibitory concentrations (rhinoviruses): 0.3 to 0.9 µg/mL | activation of prostaglandin E2 receptors (prostaglandin E2): did not activate | activation of histamine receptors (histamine): did not activate | activation of adrenergic receptors (adrenergic): did not activate | potassium in serum [8, 9]: increases | sodium in serum [8, 9]: not | oliguria ([8]; dose of 25 mg/kg and above): significant oliguria
